Data on three compounds can be found in patent US20260248761A1, “COMPOSITIONS AND METHODS FOR TREATMENT OF PULMONARY HYPERTENSION” (EpicentRx, Inc., priority 2022, published 2026).

In series [1] the test system is male Wistar rats. Kind of series: Mean pulmonary artery pressure (mPAP) by catheter, intermittent hypoxia PAH study. Type of series: in vivo, rat. The note with it: FIG. 1A, intermittent hypoxia FiO2 10%, RRx-001 5 mg/kg or Bosentan 50 mg/kg mixed with blood, tail injection; for mPAP, lower value of group distribution: PAH group 27, control 16; for mPAP, median value of group distribution: PAH group 30, control 17, RRx-001 p<0.05 vs PAH; for mPAP, upper value of group distribution: PAH group 33, control 20. The procedure: (§1) The study exposed 18 male Wistar rats to an isobaric chamber with intermittent hypoxia where the fraction of inspired oxygen (FiO2) is 10%.
The mPAP was recorded in FIG. 1A using a catheter introduced into the right jugular vein of the male Wistar rats and passed across the tricuspid valve and a right ventricle into the pulmonary artery. A distribution of the mPAP results for the various groups is plotted in FIG. 1A.

Series [2] relates to male Wistar rats. The series is described as follows: Mean aortic pressure (mAP) by arterial catheter, intermittent hypoxia PAH study. Type of series: in vivo, rat. The note with it: FIG. 1B, RRx-001 5 mg/kg or Bosentan 50 mg/kg mixed with blood; for mAP, lower value of group distribution: PAH group 117, control 98; for mAP, median value of group distribution: PAH group 137, control 113, RRx-001 p<0.05 vs PAH; for mAP, upper value of group distribution: PAH group 147, control 116. As to the method:
as §1
The second graph, FIG. 1B, is a distribution of mean aortic pressure (mAP) that was recorded by an arterial catheter inserted via the carotid artery of the male Wistar rats. The PAH group distribution has an upper value for mAP of approximately 147 mmHg, a median value for the mAP of approximately 137 mmHg, and a lower value for the mAP of approximately 117 mmHg. The RRx-001 group has an upper value for the mAP of approximately 134 mmHg, a median value for the mAP of approximately 121 mmHg, and a lower value for the mAP of approximately 116 mmHg. The p value as determined for the mAP results between the PAH group and the RRx-001 group is less than 0.05.

The subject of series [3] is male Wistar rats. The series is described as follows: Wet weight ratio (Fulton index) RV/(LV+SP), right ventricular hypertrophy, hypoxia PAH study. Type of series: in vivo, rat. The note with it: FIG. 2, RRx-001 5 mg/kg or Bosentan 50 mg/kg mixed with blood; for wet weight ratio RV/(LV+SP), lower value: PAH group 0.38, control 0.28; for wet weight ratio RV/(LV+SP), median value: PAH group 0.43, control 0.31; for wet weight ratio RV/(LV+SP), upper value: PAH group 0.44, control 0.33. The source says:
A distribution of the collected data is plotted on the graph for the 4 groups of male Wistar rats: the control group, the PAH group, the RRx-001 group, and the Bosentan group. The calculated wet weight ratio is intended to be an indicator of right ventricular hypertrophy.
To measure the wet weight ratio, the heart was excised, the atria were removed, and the wall of the right ventrical (RV) was separated from the heart. Tissues were blotted and weighed. […] The elevated pulmonary arterial pressure was paralleled by an increase in systolic pressure, and right ventricular hypertrophy according to the Fulton index.

For series [4], the system named is male Wistar rats. Kind of series: Lung morphological changes: relative medial wall thickness and area, hypoxia PAH study. Type of series: in vivo, rat. The note with it: RRx-001 5 mg/kg or Bosentan 50 mg/kg mixed with blood; for medial wall thickness relative to external diameter, lower value / medial wall thickness relative to external diameter, median value / medial wall thickness relative to external diameter, upper value: FIG. 4A; for medial wall thickness relative to external diameter, lower value: PAH group 0.13, control 0.07; for medial wall thickness relative to external diameter, median value: PAH group 0.14, control 0.07; for medial wall thickness relative to external diameter, upper value: PAH group 0.15, control 0.08; for medial wall area relative to lumen area, lower value / medial wall area relative to lumen area, median value / medial wall area relative to lumen area, upper value: FIG. 4B; for medial wall area relative to lumen area, lower value: PAH group 0.16, control 0.11; for medial wall area relative to lumen area, median value: PAH group 0.17, control 0.12; for medial wall area relative to lumen area, upper value: PAH group 0.21, control 0.14. As to the method: To collect the data, male Wistar rats lungs were removed and fixed in paraformaldehyde, then dehydrated and embedded in paraffin for sectioning. The relative medial thickness and relative medial areas were calculated from vessels showing a clearly defined external and internal elastic lamina.

Series [5] concerns male Wistar rats. Kind of series: Echocardiograph: ejection fraction and fractional shortening, hypoxia PAH study. The note with it: RRx-001 5 mg/kg or Bosentan 50 mg/kg mixed with blood; for ejection fraction, lower value / ejection fraction, median value / ejection fraction, upper value: FIG. 3A; for ejection fraction, lower value: PAH group 49%, control 65%; for ejection fraction, median value: PAH group 51%, control 68%; for ejection fraction, median value / fractional shortening, median value: RRx-001 p<0.05 vs PAH; for ejection fraction, upper value: PAH group 59%, control 72%; for fractional shortening, median value / fractional shortening, upper value: FIG. 3B; for fractional shortening, median value: PAH group 31%, control 42%; for fractional shortening, upper value: PAH group 33%, control 44%.
Procedure: The male Wistar rats exposed to hypoxia were then divided into 3 groups for the study. A first group of 6 male Wistar rats were untreated and labeled “PAH”. A second group of 6 male Wistar rats were treated with the RRx-001. A third group of 6 male Wistar rats were treated with Bosentan, which is a drug that is used to treat PAH.
Treatment for the second group of male Wistar rats comprised mixing 5 mg/kg RRx-001 with blood and administering the mixture via tail injection before the hypoxia exposure. Similarly, treatment for the third group of male Wistar rats comprised mixing 50 mg/kg Bosentan with blood and administering the mixture daily via tail injection before the hypoxia exposure.

Series [6] deals with male Wistar rats. The series is described as follows: H&E staining of the pulmonary arteriole (pulmonary vascular remodeling). The note with it: FIG. 10, hypoxia induced PAH rats. Type of series: in vivo, rat. The source says:
FIG. 10 depicts the effect of the RRx-001 and Bosentan on pulmonary vascular remodeling. Specifically, FIG. 10 depicts images showing H&E staining in the pulmonary arteriole.

For series [7], the system named is male Wistar rats. Type of series: in vivo, rat. The note with it: FIG. 5A, hypoxia 1 week. The procedure:
(§2) Male Wistar rats were kept in an isobaric hypoxic chamber with intermittent hypoxia (FiO2=10%) for (1) week (6 hours/day, 6 day/week). […] For administration, the RRx-001 (10 mg/kg) was mixed with blood and injected via the tail at the beginning of hypoxia exposure every day. […] Untreated control animals were not administered any agents and the SHAM (Control) group was not subjected to hypoxia.
Mean pulmonary pressure (mPAP) was recorded using a catheter introduced in the right jugular vein and passed across the tricuspid valve and right ventricle into the pulmonary artery.

Series [8] has as its system male Wistar rats. Type of series: in vivo, rat. The procedure:
as §2
Mean aortic pressure (mAP) was recorded by an arterial catheter inserted via the carotid artery.

In series [9] the test system is male Wistar rats. Type of series: in vivo, rat. The procedure: To measure the wet weight ratio, the heart was excised, the atria were removed, and the wall of the right ventrical (RV) was separated from the heart. Tissues were blotted and weighed.
as §2
The wet weight ratio is an indicator of right ventricle hypertrophy. The wet weight ratios were measured according to the same procedure as set out in the description for FIG. 2.
This is another data set of the same source.

For series [10], the system named is Wistar rats. The note with it: FIG. 9, blood.

Several values for one entry are separate records, joined by “and”; a condition that tells them apart may be missing. Equal values may be shown once. Read-outs that look alike come from different tables or passages of the source.

Take `COc1ccccc1Oc1c(NS(=O)(=O)c2ccc(C(C)(C)C)cc2)nc(-c2ncccn2)nc1OCCO` [Bosentan, reference compound]: in series [1], the “mPAP, lower value of group distribution” value is “approximately 21 mmHg”; the “mPAP, median value of group distribution” value is given as “approximately 22 mmHg”; the “mPAP, upper value of group distribution” value is “approximately 24 mmHg”. In [2], the “mAP, lower value of group distribution” value was “approximately 108 mmHg”; the “mAP, median value of group distribution” value is reported as “approximately 120 mmHg”; the “mAP, upper value of group distribution” value is on record as “approximately 126 mmHg”. For the same compound, in [3], the “wet weight ratio RV/(LV+SP), lower value” was “approximately 0.32”; the “wet weight ratio RV/(LV+SP), median value” is listed as “approximately 0.35”; the “wet weight ratio RV/(LV+SP), upper value” is “approximately 0.39”. Further, in [4], the “medial wall thickness relative to external diameter, lower value” was “approximately 0.09”; the “medial wall thickness relative to external diameter, median value” is reported as “approximately 0.10”; the “medial wall thickness relative to external diameter, upper value” is “approximately 0.12”; the “medial wall area relative to lumen area, lower value” is recorded as “approximately 0.14”. Also, in series [4], the “medial wall area relative to lumen area, median value” is on record as “approximately 0.16” and the “medial wall area relative to lumen area, upper value” was “approximately 0.17”. Moreover, in series [5], the “ejection fraction, lower value” is on record as “approximately 52%”; the “ejection fraction, median value” is given as “approximately 59%”; the “ejection fraction, upper value” is “approximately 63%”; the “fractional shortening, median value” is given as “approximately 38%”. Besides, the “fractional shortening, upper value” in [5] is reported as “approximately 42%”.
On to `O=C(CBr)N1CC([N+](=O)[O-])([N+](=O)[O-])C1` [RRx-001, 2-bromo-1-(3,3-dinitroazetidin-1-yl) ethan-1-one], for which, in series [1], the “mPAP, lower value of group distribution” value is given as “approximately 23 mmHg”; the “mPAP, median value of group distribution” value is listed as “approximately 26 mmHg”; the “mPAP, upper value of group distribution” value was “approximately 28 mmHg”. In addition, in series [2], the “mAP, lower value of group distribution” value was “approximately 116 mmHg”; the “mAP, median value of group distribution” value is reported as “approximately 121 mmHg”; the “mAP, upper value of group distribution” value is listed as “approximately 134 mmHg”. In addition, in series [3], the “wet weight ratio RV/(LV+SP), lower value” is on record as “approximately 0.34”; the “wet weight ratio RV/(LV+SP), median value” is “approximately 0.35”; the “wet weight ratio RV/(LV+SP), upper value” was “approximately 0.39”. Moreover, in [4], the “medial wall thickness relative to external diameter, lower value” is “approximately 0.07”; the “medial wall thickness relative to external diameter, median value” was “approximately 0.08”; the “medial wall thickness relative to external diameter, upper value” is listed as “approximately 0.09”; the “medial wall area relative to lumen area, lower value” is given as “approximately 0.14”. Further, in series [4], the “medial wall area relative to lumen area, median value” is given as “approximately 0.14” and the “medial wall area relative to lumen area, upper value” is on record as “approximately 0.16”. Moreover, in series [6], the “increases in pulmonary vascular wall thickness and muscularization of the pulmonary arteriole” value is on record as “inhibited”. Besides, in [7] (RRx-001 10 mg/kg + nitrite (NaNO2) 10 mg/kg s.c.), the “median mPAP” value is roughly 18 mmHg. The “median mPAP” value in series [7] (RRx-001 10 mg/kg + nitrite (NaNO2) 20 mg/kg s.c.) was roughly 16 mmHg. The “median mPAP” value in series [7] (RRx-001 10 mg/kg + nitrite (NaNO2) 40 mg/kg s.c.) is listed as roughly 15 mmHg. For the same compound, the “median mPAP” value in series [7] (RRx-001 10 mg/kg mixed with blood daily, nitrite 0, saline/0 nitrite 23, control 20, SHAM 17) was “approximately 17 mmHg”. Moreover, the “median mAP” value in series [8] (FIG. 5B, hypoxia 1 week, RRx-001 10 mg/kg + nitrite 10 mg/kg s.c.) is roughly 115 mmHg. Moreover, the “median mAP” value in series [8] (FIG. 5B, hypoxia 1 week, RRx-001 10 mg/kg + nitrite 20 mg/kg s.c.) was roughly 107 mmHg. The “median mAP” value in [8] (FIG. 5B, hypoxia 1 week, RRx-001 10 mg/kg + nitrite 40 mg/kg s.c.) is roughly 102 mmHg. Moreover, in series [8] (FIG. 5B, hypoxia 1 week, RRx-001 10 mg/kg mixed with blood daily, nitrite 0, saline/0 nitrite 137, control 124, SHAM 109), the “median mAP” value was “approximately 116 mmHg”. Also, in [9] (FIG. 7/8, hypoxia 1 week, RRx-001 10 mg/kg + nitrite 10 mg/kg), the “median wet weight ratio RV/(LV+SP)” value is “approximately 0.40 mg/mg”. Also, the “median wet weight ratio RV/(LV+SP)” value in series [9] (FIG. 7/8, hypoxia 1 week, RRx-001 10 mg/kg + nitrite 20 mg/kg) is reported as roughly 0.35 mg/mg. Also, the “median wet weight ratio RV/(LV+SP)” value in series [9] (FIG. 7/8, hypoxia 1 week, RRx-001 10 mg/kg + nitrite 40 mg/kg) is given as roughly 0.32 mg/mg. The “effect on right ventricle hypertrophy (wet weight ratio)” value in series [9] (FIG. 7/8, hypoxia study with nitrite, result in words) is “has an effect on right ventricle hypertrophy”. Besides, in series [9] (rat, in vivo, 10 mg/kg), the “median wet weight ratio RV/(LV+SP)” value is reported as “approximately 0.37 mg/mg”. The “median metHb concentration” value in series [10] (RRx-001 10 mg/kg + nitrite 10 mg/kg) is listed as roughly 3%. For the same compound, the “median metHb concentration” value in series [10] (RRx-001 10 mg/kg + nitrite 20 mg/kg) was roughly 7%. Besides, the “median metHb concentration” value in series [10] (RRx-001 10 mg/kg + nitrite 40 mg/kg) is reported as roughly 12%. In [10] (RRx-001 10 mg/kg, nitrite 0, saline/0 nitrite and controls 1%), the “median metHb concentration” value was “approximately 1%”. In [5], the “ejection fraction, lower value” is given as “approximately 60%”; the “ejection fraction, median value” was “approximately 66%”; the “ejection fraction, upper value” is listed as “approximately 69%”; the “fractional shortening, median value” is “approximately 38%”. Moreover, in [5], the “fractional shortening, upper value” was “approximately 39%”.
`O=NO` [nitrite, reference compound]: in [8] (rat, in vivo), the “effect of nitrite on mAP versus mPAP” value was “systemic effect on mAP but less significant on mPAP”; the “median mAP” value is ~122 mmHg and ~126 mmHg and ~120 mmHg.
